# Measured values published in US8507562B2, “Synthesis of (1)-beta-elemene, (-)-beta-elemenal, (-)-beta-elemenol, (-)-beta-elemene fluoride and their analogues, intermediates, and composition and uses thereof” (HYWE Pharmaceuticals, Inc., priority 2004, dated 2013).
# Read-outs that look alike come from different tables or passages of the source.
# What was measured:
# A549 lung cancer = assay: MTT survival assay; conditions: 2 × 10^4 cells/ml
# Experimental: (§3) The MTT assay is a commonly used method in evaluation of cell survival, based on the ability of viable cells to convert MTT, a soluble tetrazolium salt [3-(4,5-dimethylthuazole-2-yl)-2,5 diphenyl tetrazolium bromide], into an insoluble formazan precipitate, which is quantitated by spectrophotometry following solubilization in dimethyl sulfoxide (DMSO).
# (§4) In brief, carcinoma cells treated with test articles alone, in 96-well tissue culture dishes were incubated with MTT (2 μg/ml) for 4 h. The cells were then solubilized in 125 μl of DMSO and absorbance readings were taken using a 96-well Opsys MRI Microplate Reader (ThermoLabsystems; Chantilly, Va.). The amount of MTT dye reduction was calculated based on the difference between absorbance at 570 nm and at 630 nm. Cell viability in treated cells was expressed as the amount of dye reduction relative to that of untreated control cells. The wells that contained only medium and 10 μl of MTT were used as blanks for the plate reader.
# H-460 lung cancer = assay: MTT survival assay; format: cell-based, human; conditions: 2 × 10^4 cells/ml
# Experimental: as §3
# (§5) The cells were then solubilized in 125 μl of DMSO and absorbance readings were taken using a 96-well Opsys MRI Microplate Reader (ThermoLabsystems; Chantilly, Va.). The amount of MTT dye reduction was calculated based on the difference between absorbance at 570 nm and at 630 nm. Cell viability in treated cells was expressed as the amount of dye reduction relative to that of untreated control cells. The wells which contained only medium and 10 μl of MTT were used as blanks for the plate reader. Three sets of experiments were performed in 8-12 wells for each treatment.
# as §4
# (§6) The cells were then solubilized in 125 μl of DMSO and absorbance readings were taken using a 96-well Opsys MRI Microplate Reader (ThermoLabsystems; Chantilly, Va.). The amount of MTT dye reduction was calculated based on the difference between absorbance at 570 nm and at 630 nm. Cell viability in treated cells was expressed as the amount of dye reduction relative to that of untreated control cells. The wells which contained only medium and 10 μI of MTT were used as blanks for the plate reader. Three sets of experiments were performed in 8-12 wells for each treatment.
# [1] = test system: human glioma SHG-44G (xenograph under skin); assay: Xenograph under skin, injection directly into tumor; format: in vivo, nude mice; conditions: listed as printed Pos. Cont. VM-26: 60 mg/kg it × 10 qd
# Description: (§1) The mice were killed after 3 weeks.
# Nude mice grew on the cengliu rack.
# [2] = test system: human glioma G-422 (xenograph under skin); assay: as above; format: in vivo, mice; conditions: 5 mg ip × 10 qd
# Description: as §1
# [3] = test system: human glioma G422 (xenograph in brain); assay: Tumor xenographed in mice brain, survival; format: in vivo; conditions: 5 mg/kg/time ip × 7 qd
# Experimental: (§2) Mice model with tumor xenographed in mice brain: Glioma cell line G-422 or SHG44 (log phase) were diluted to 2×10^7/ml in cell culture hood (no bacteria environment). Each mouse was injected with 0.05 ml of tumor cell in its brain. […] The survival time of these mice was recorded in the next 30 days. The life extension was calculated using the following formula: Life Extension Rate=[( […])/Average survival days of control group[×100 Results: […]
# [4] = test system: human glioma SHG44 (xenograph in brain); assay: Tumor xenographed in mice brain, survival; format: in vivo, nude mice; conditions: 5 mg/kg/time ip × 7 qd
# Experimental: as §2
# human glioma cells = assay: MTT assay, elemene analogs; format: cell-based; conditions: for IC50: Homo sapiens, Glioma cell
# Experimental: as §3, §5
# STTG1 brain tumor = assay: MTT survival assay; format: cell-based, human; conditions: Homo sapiens, read-out: IC50
# Experimental: as §3, §5
# U-87 brain tumor = assay: MTT survival assay; format: cell-based, human; conditions: Homo sapiens, read-out: IC50
# Experimental: as §3, §5, §6
# A-172 brain tumor = assay: MTT survival assay; format: cell-based, human; conditions: Homo sapiens, A 172, read-out: IC50
# Experimental: as §3, §5, §6
# [5] = test system: Colon Cancer Cells HCT-116; assay: MTS cell viability assay; format: cell-based, human; conditions: combinations with Elemene 160 μg/ml, n = 8
# [6] = test system: Colon Cancer Cells HCT-15; assay: MTS cell viability assay; conditions: combinations with Elemene 160 μg/ml, n = 8
# Experimental: (§7) Cells were maintained at 37° C. in a humidified atmosphere including 5% CO2. […] Drugs were dissolved in 100% DMSO and then diluted in medium for experiments.
# [7] = test system: Colon Cancer Cells Colo 205; assay: MTS cell viability assay; conditions: Colo 205, drug alone
# Experimental: as §7
# human colon cancer HCT-8 = conditions: 30 mg/kg/time ip × 7 qd
# human liver cancer QGY = conditions: 30 mg/kg/time ip × 7 qd
# [8] = test system: human breast cancer Bcap-37; conditions: 30 mg/kg/time ip × 7 qd
# [9] = test system: human breast cancer ao10/17; conditions: 30 mg/kg/time ip × 7 qd
# [10] = test system: human prostate cancer PC-3M; conditions: 30 mg/kg/time ip × 7 qd
# human lung cancer A549 = conditions: 30 mg/kg/time ip × 7 qd
compound,measurement,setting,value
(−)-Beta-elemene Fluoride,IC50,"A549 lung cancer; A549, 24 h",83.0 µg/mL
same,IC50,"A549 lung cancer; A549, 48 h",64.5 µg/mL
same,IC50,"A549 lung cancer; A549, 72 h",71.4 µg/mL
same,IC50,"H-460 lung cancer; H460, 24 h",71.3 µg/mL
same,IC50,"H-460 lung cancer; H460, 48 h",62.5 µg/mL
same,IC50,"H-460 lung cancer; H460, 72 h",68.6 µg/mL
"COc1cc([C@@H]2c3cc4c(cc3[C@@H](O[C@@H]3O[C@@H]5CO[C@@H](c6cccs6)O[C@H]5[C@H](O)[C@H]3O)[C@H]3COC(=O)[C@H]23)OCO4)cc(OC)c1O [VM26, reference compound]",Inhibition Rate %,[1],61.08%
same,Tumor Weight X ± SD,[1]; in g (unit assumed),0.72 ± 0.12
same,Inhibition Rate %,[2],85.78%
same,Tumor Weight X ± SD,[2]; in g (unit assumed),0.32 ± 0.12
same,Average Life Span (day) X± SD,[3],21.5 ± 3.4 days
same,Average Life Span (day) X± SD,[4],30.8 ± 3.7 days
same,Survival time as % of control (T/C),[4]; compared to control,196.75%
"C=C(C)[C@H]1CC=C(C)C(=O)C1 [Lr-9, (S)-5-Isopropenyl-2-methyl-cyclohex-2-enone]",IC50,human glioma cells; 24 hr,> 200 µg/mL
same,IC50,human glioma cells; 48 hr,> 200 µg/mL
same,IC50,human glioma cells; 72 hr,> 200 µg/mL
"(S)-1,5-Diisopropenyl-2-methyl-cyclohex-2-enol, and (R)-1,5-Diisopropenyl-2-methyl-cyclohex-2-enol [Lr-4]",IC50 in human glioma cells,human glioma cells; 24 hr,>200 µg/mL
same,IC50 in human glioma cells,human glioma cells; 48 hr,>200 µg/mL
same,IC50 in human glioma cells,human glioma cells; 72 hr,>200 µg/mL
"C=C[C@]1(C)CC[C@@H]([C@@](C)(O)CO)C[C@H]1C(=C)C (single isomer, unassigned) [Lr-1]",IC50,"STTG1 brain tumor; STTG1, 24 h",108 µg/mL
same,IC50,"STTG1 brain tumor; STTG1, 48 h",98 µg/mL
same,IC50,"STTG1 brain tumor; STTG1, 72 h",94 µg/mL
same,IC50,"U-87 brain tumor; U87, 24 h",98 µg/mL
same,IC50,"U-87 brain tumor; U87, 48 h",94 µg/mL
same,IC50,"U-87 brain tumor; U87, 72 h",89 µg/mL
same,IC50,"A-172 brain tumor; A172, 24 h",106 µg/mL
same,IC50,"A-172 brain tumor; A172, 48 h",94 µg/mL
same,IC50,"A-172 brain tumor; A172, 72 h",90 µg/mL
"(1R,5S)-1-Isobutyl-3,5-diisopropenyl-2-methyl-cyclohex-2-enol, and (1S,5S)-1-Isobutyl-3,5-diisopropenyl-2-methyl-cyclohex-2-enol [Lr-8]",IC50 in human glioma cells,human glioma cells; 24 hr,106.2 µg/mL
same,IC50 in human glioma cells,human glioma cells; 48 hr,105.2 µg/mL
same,IC50 in human glioma cells,human glioma cells; 72 hr,103.3 µg/mL
"C=C(C)C1=C(C)C(=O)C[C@@H](C(=C)C)C1 [Lr-6, (S)-3,5-Diisopropenyl-2-methyl-cyclohex-2-enone]",IC50,human glioma cells; 24 hr,> 200 µg/mL
same,IC50,human glioma cells; 48 hr,> 200 µg/mL
same,IC50,human glioma cells; 72 hr,> 200 µg/mL
"C=C[C@]1(C)CC[C@@H](C(=C)C=O)C[C@H]1C(=C)C [(−)-beta-elemenal, (−)-Beta-elemenal]",IC50,"A549 lung cancer; A549, 24 h",45.6 µg/mL
same,IC50,"A549 lung cancer; A549, 48 h",35.0 µg/mL
same,IC50,"A549 lung cancer; A549, 72 h",35.0 µg/mL
same,IC50,"H-460 lung cancer; H460, 24 h",27.6 µg/mL
same,IC50,"H-460 lung cancer; H460, 48 h",25.5 µg/mL
same,IC50,"H-460 lung cancer; H460, 72 h",11.0 µg/mL
"(1S,5S)-3,5-Diisopropenyl-2-methyl-cyclohex-2-enol, and (1R,5S)-3,5-Diisopropenyl-2-methyl-cyclohex-2-enol [Lr-7]",IC50 in human glioma cells,human glioma cells; 24 hr,>200 µg/mL
same,IC50 in human glioma cells,human glioma cells; 48 hr,>200 µg/mL
same,IC50 in human glioma cells,human glioma cells; 72 hr,>200 µg/mL
O=C1[O][Pt]2([NH][C@@H]3CCCC[C@H]3[NH]2)[O]C1=O [Oxaliplatin],IC50,"[5]; HCT-116, 4 hr/24 hr × 2",106 ± 15.7 µg/mL
same,IC50,"[5]; HCT-116, 4 hr/24 hr × 3",65.7 ± 7.02 µg/mL
same,IC50,"[5]; HCT-116, 4 hr/24 hr",148 ± 13.7 µg/mL
same,IC50,"[5]; HCT-116, 4 hr",373 ± 69.6 µg/mL
same,IC50,"[5]; HCT-116, 8 hr",92.2 ± 15.7 µg/mL
same,IC50,"[5]; HCT-116, 12 hr",74.4 ± 6.28 µg/mL
same,IC50,"[5]; HCT-116, 24 hr",68.9 ± 7.92 µg/mL
same,IC50,"[5]; HCT-116, 48 hr",64.5 ± 7.89 µg/mL
same,IC50,"[5]; HCT-116, 72 hr",57.2 ± 10.5 µg/mL
same,IC50,"[6]; HCT-15, 4 hr/24 hr × 2",16.4 ± 4.64 µg/mL
same,IC50,"[6]; HCT-15, 4 hr/24 hr × 3",11.8 ± 3.69 µg/mL
same,IC50,"[6]; HCT-15, 4 hr/24 hr",22.0 ± 7.66 µg/mL
same,IC50,"[6]; HCT-15, 4 hr",28.4 ± 6.80 µg/mL
same,IC50,"[6]; HCT-15, 8 hr",25.7 ± 5.61 µg/mL
same,IC50,"[6]; HCT-15, 12 hr",19.3 ± 3.21 µg/mL
same,IC50,"[6]; HCT-15, 48 hr",14.5 ± 2.66 µg/mL
same,IC50,"[6]; HCT-15, 72 hr",14.9 ± 3.33 µg/mL
same,IC50,"[7]; Time 4 hr, n = 8",166 ± 7.51 µg/mL
same,IC50,"[7]; Time 4 hr/24 hr × 2, n = 8",21.8 ± 1.06 µg/mL
same,IC50,"[7]; Time 4 hr/24 hr × 3, n = 8",9.90 ± 1.01 µg/mL
same,IC50,"[7]; Time 4 hr/24 hr, n = 8",29.5 ± 7.05 µg/mL
same,IC50,"[7]; Time 8 hr, n = 8",124 ± 13.1 µg/mL
same,IC50,"[7]; Time 12 hr, n = 8",69.7 ± 12.7 µg/mL
same,IC50,"[7]; Time 24 hr, n = 8",25.2 ± 7.85 µg/mL
same,IC50,"[7]; Time 48 hr, n = 8",20.4 ± 2.14 µg/mL
same,IC50,"[7]; Time 72 hr, n = 8",13.4 ± 2.42 µg/mL
"C=C(C)[C@@H]1CC=C(C)C(=O)C1 [Lr-10, (R)-5-Isopropenyl-2-methyl-cyclohex-2-enone]",IC50,human glioma cells; 24 hr,> 200 µg/mL
same,IC50,human glioma cells; 48 hr,> 200 µg/mL
same,IC50,human glioma cells; 72 hr,> 200 µg/mL
"(S)-5-Isopropenyl-1,2-dimethyl-cyclohex-2-enol, and (R)-5-Isopropenyl-1,2-dimethyl-cyclohex-2-enol [Lr-5]",IC50 in human glioma cells,human glioma cells; 24 hr,>200 µg/mL
same,IC50 in human glioma cells,human glioma cells; 48 hr,>200 µg/mL
same,IC50 in human glioma cells,human glioma cells; 72 hr,>200 µg/mL
"O=P1(N(CCCl)CCCl)NCCCO1 (centres unmarked) [CTX, Cyclophosphamide, reference compound]",Inhibition Rate %,human colon cancer HCT-8,88.11%
same,Tumor Weight (g) X ± SD,human colon cancer HCT-8,0.170 ± 0.08 g
same,Inhibition Rate %,human liver cancer QGY,89.37%
same,Tumor Weight (g) X ± SD,human liver cancer QGY,0.22 ± 0.12 g
same,Inhibition Rate %,[8],84.23%
same,Tumor Weight (g) X ± SD,[8],0.205 ± 0.12 g
same,Inhibition Rate %,[9],87.50%
same,Tumor Weight (g) X ± SD,[9],0.15 ± 0.08 g
same,Inhibition Rate %,[10],87.27%
same,Tumor Weight (g) X ± SD,[10],0.205 ± 0.1 g
same,Inhibition Rate %,human lung cancer A549,85.13%
same,Tumor Weight (g) X ± SD,human lung cancer A549,0.29 ± 0.07 g
"C=C[C@]1(C)CC[C@@H](C(C)=O)C[C@H]1C(=C)C [Lr-3, 1-((1R,3S,4S)-3-Isopropenyl-4-methyl-4-vinyl-cyclohexyl)-ethanone]",IC50,"STTG1 brain tumor; STTG1, 24 h",108 µg/mL
same,IC50,"STTG1 brain tumor; STTG1, 48 h",> 120 µg/mL
same,IC50,"STTG1 brain tumor; STTG1, 72 h",110 µg/mL
same,IC50,human glioma cells; 24 hr,> 200 µg/mL
same,IC50,human glioma cells; 48 hr,> 200 µg/mL
same,IC50,human glioma cells; 72 hr,> 200 µg/mL
same,IC50,"U-87 brain tumor; U87, 24 h",118 µg/mL
same,IC50,"U-87 brain tumor; U87, 48 h",> 120 µg/mL
same,IC50,"U-87 brain tumor; U87, 72 h",120 µg/mL
same,IC50,"A-172 brain tumor; A172, 24 h",> 140 µg/mL
same,IC50,"A-172 brain tumor; A172, 48 h",134 µg/mL
same,IC50,"A-172 brain tumor; A172, 72 h",106 µg/mL
"C=C[C@]1(C)CC[C@@H]([C@](C)(O)CO)C[C@H]1C(=C)C [Lr-2, (S)-2-((1R,3S,4S)-3-isopropenyl-4-methyl-4-vinyl-cyclohexyl)-propane-1,2-diol]",IC50,"STTG1 brain tumor; STTG1, 24 h",112 µg/mL
same,IC50,"STTG1 brain tumor; STTG1, 48 h",98 µg/mL
same,IC50,"STTG1 brain tumor; STTG1, 72 h",97 µg/mL
same,IC50,human glioma cells; 48 hr,89.6 µg/mL
same,IC50,human glioma cells; 72 hr,90.9 µg/mL
same,IC50,"U-87 brain tumor; U87, 24 h",90 µg/mL
same,IC50,"U-87 brain tumor; U87, 48 h",94 µg/mL
same,IC50,"U-87 brain tumor; U87, 72 h",87 µg/mL
same,IC50,"A-172 brain tumor; A172, 24 h",122 µg/mL
same,IC50,"A-172 brain tumor; A172, 48 h",96 µg/mL
same,IC50,"A-172 brain tumor; A172, 72 h",65 µg/mL
